{"source": "patent US20050272692A1", "about": "“Sucrose ester compounds useful as fungicides” (priority 2004, published 2005)", "key": {"Stachybotrys chartarum [1]": {"test_system": "Stachybotrys chartarum"}, "Penicillium": {"test_system": "Penicillium", "conditions": "lab trial"}, "Stachybotrys chartarum [2]": {"test_system": "Stachybotrys chartarum", "conditions": "for growth during incubation period: 144 hour incubation, all concentrations; for growth: all concentrations (400 to 2000 ppm), malt extract agar, 25° C."}, "Aspergillus parasiticus": {"test_system": "Aspergillus parasiticus", "conditions": "for growth: all concentrations, malt extract agar, 25° C., 144 hours", "experimental": "(§1) For each fungus tests were conducted on malt extract agar that was amended with five concentrations of sucrose octanoate. The control medium was standard malt extract agar. The concentrations were prepared based on 100% active ingredient. The parts per million were calculated afterwards to account for a concentration of 40% active ingredient. All fungi in the tests were incubated at 25° C. for 144 hours.\n(§2) For each fungi tests were conducted on malt extract agar that was amended with five concentrations of sorbitol octanoate. The control medium was standard malt extract agar. The concentrations were prepared based on 100% active ingredient. The parts per million were calculated afterwards to account for a concentration of 40% active ingredient. All fungi in the tests were incubated at 25° C. for 144 hours."}, "Rhizopus": {"test_system": "Rhizopus", "conditions": "1000 ppm, lab trial"}, "Stachybotrys": {"test_system": "Stachybotrys", "conditions": "1000 ppm, lab trial"}, "three different fungi": {"test_system": "three different fungi", "conditions": "2000 ppm, lab trial"}, "Penicillium chrysogenum": {"test_system": "Penicillium chrysogenum", "conditions": "low concentrations, malt extract agar, 25° C., 144 hours", "experimental": "as §1, §2"}, "Rhizopus stolonifer": {"test_system": "Rhizopus stolonifer", "conditions": "for growth during incubation period: 144 hour incubation", "experimental": "as §1, §2"}, "Aspergillus flavus": {"test_system": "Aspergillus flavus", "conditions": "for growth: all concentrations, malt extract agar, 25° C., 144 hours", "experimental": "as §1, §2"}, "[3]": {"conditions": "2000 ppm, d.f=2, p<0.05, unpaired one-tailed T-tests"}}, "note": "Where two headings read alike, the source gives them in different places.", "data": [{"substance": "Zinc Mono-Sucrose Succinate [Compound A]", "values": [{"measurement": "reduction of radial growth", "setting": "Stachybotrys chartarum [1]; 1000 ppm", "value": 66.0, "unit": "%"}, {"measurement": "sporulation", "setting": "Stachybotrys chartarum [1]; 1000 ppm medium, high levels on control medium", "value": "reduced to low levels"}, {"measurement": "radial growth diameter", "setting": "Stachybotrys chartarum [1]; 1000 ppm, control medium 19.7 mm", "value": 6.7, "unit": "mm"}, {"measurement": "growth measurement", "setting": "Stachybotrys chartarum [1]; 5000 ppm, very limited growth", "value": 2.7, "unit": "mm"}, {"measurement": "reduction of radial growth", "setting": "Fusarium graminearum; 1000 ppm", "value": 73, "unit": "%"}, {"measurement": "radial growth diameter", "setting": "Fusarium graminearum; 1000 ppm, control 67.6 mm", "value": 18.3, "unit": "mm"}, {"measurement": "inhibition", "setting": "Fusarium graminearum; 5000 ppm", "value": "no additional inhibition over the 1000-ppm assay"}, {"measurement": "reduction of radial growth", "setting": "Mucor sp; 1000 ppm", "value": 74.4, "unit": "%"}, {"measurement": "radial growth diameter", "setting": "Mucor sp; 1000 ppm, control 66.5 mm", "value": 17, "unit": "mm"}, {"measurement": "growth", "setting": "Mucor sp; 5000 ppm", "value": "no significant level of growth"}, {"measurement": "reduction of radial growth", "setting": "Alternaria sp; 1000 ppm", "value": 64.9, "unit": "%"}, {"measurement": "radial growth diameter", "setting": "Alternaria sp; 1000 ppm, control 28.5 mm", "value": 10, "unit": "mm"}, {"measurement": "growth", "setting": "Alternaria sp; 5000 ppm", "value": "no significant level of growth"}, {"measurement": "reduction of radial growth", "setting": "Pythium ultimum; 1000 ppm", "value": 92.3, "unit": "%"}, {"measurement": "radial growth diameter", "setting": "Pythium ultimum; 1000 ppm, control 85 mm", "value": 6.6, "unit": "mm"}, {"measurement": "growth", "setting": "Pythium ultimum; 5000 ppm", "value": "no significant level of growth"}, {"measurement": "reduction of radial growth", "setting": "Rhizoctonia solani; 1000 ppm", "value": 75.4, "unit": "%"}, {"measurement": "radial growth diameter", "setting": "Rhizoctonia solani; 1000 ppm, control 62.3 mm", "value": 15.3, "unit": "mm"}, {"measurement": "growth measurement", "setting": "Rhizoctonia solani; 5000 ppm, very limited growth", "value": 10, "unit": "mm"}, {"measurement": "reduction of radial growth", "setting": "Aspergillus niger; 1000 ppm", "value": 65.6, "unit": "%"}, {"measurement": "sporulation", "setting": "Aspergillus niger; 1000 ppm medium, also high on control medium", "value": "high"}, {"measurement": "radial growth diameter", "setting": "Aspergillus niger; 1000 ppm, control medium 63.0 mm", "value": 21.7, "unit": "mm"}, {"measurement": "growth", "setting": "Aspergillus niger; 5000 ppm", "value": "no significant level of growth"}]}, {"substance": "sucrose octanoate", "values": [{"measurement": "growth of fungus", "setting": "Penicillium; 1000 ppm", "value": "some growth"}, {"measurement": "growth during incubation period", "setting": "Stachybotrys chartarum [2]", "value": "No growth"}, {"measurement": "growth", "setting": "Stachybotrys chartarum [2]", "value": "inhibited"}, {"measurement": "growth compared with control plates", "setting": "Aspergillus parasiticus; [3]", "value": "significantly less"}, {"measurement": "growth", "setting": "Aspergillus parasiticus", "value": "able to grow"}, {"measurement": "growth of fungus", "setting": "Rhizopus", "value": "prevented the growth"}, {"measurement": "growth of fungus", "setting": "Stachybotrys", "value": "prevented the growth"}, {"measurement": "growth of fungi", "setting": "three different fungi", "value": "prevented the growth"}, {"measurement": "growth", "setting": "Penicillium chrysogenum", "value": "able to grow, although slowly compared to the control"}, {"measurement": "growth during incubation period", "setting": "Rhizopus stolonifer; all concentrations tested", "value": "no growth"}, {"measurement": "growth during incubation period", "setting": "Rhizopus stolonifer; all concentrations with the exception of 400 ppm level", "value": "no growth"}, {"measurement": "growth", "setting": "Rhizopus stolonifer; all concentrations tested (400 to 2000 ppm), malt extract agar, 25° C.", "value": "inhibited"}, {"measurement": "growth compared with control plates", "setting": "Aspergillus flavus; [3]", "value": "significantly less"}, {"measurement": "growth", "setting": "Aspergillus flavus", "value": "able to grow"}]}, {"substance": "sorbitol octanoate", "values": [{"measurement": "growth of fungus", "setting": "Penicillium; 2000 ppm", "value": "some growth"}, {"measurement": "growth during incubation period", "setting": "Stachybotrys chartarum [2]", "value": "No growth"}, {"measurement": "growth", "setting": "Stachybotrys chartarum [2]", "value": "inhibited"}, {"measurement": "growth", "setting": "Aspergillus parasiticus", "value": "able to grow"}, {"measurement": "growth of fungus", "setting": "Rhizopus", "value": "prevented the growth"}, {"measurement": "growth of fungus", "setting": "Stachybotrys", "value": "prevented the growth"}, {"measurement": "growth", "setting": "Penicillium chrysogenum", "value": "able to grow, although slowly compared to the control"}, {"measurement": "growth", "setting": "Aspergillus flavus", "value": "able to grow"}]}]}
